Laboratory results taken from EP2229935A1, “Peptide derivatives or pharmaceutically acceptable salts thereof, method for producing the same, use of said derivatives and pharmaceutical composition” (Nebolsin, Vladimir Evgenievich, priority 1997, dated 1999).
Marks after values point to notes of the source that are not given here.

Experiments:
mongrel male mice = test: Average lifetime of mice in a closed volume (hypoxia); assay type: in vivo
Protocol: The tests of determining average lifetime of animals in a closed volume and on the model of acute hypobaric hypoxia at the minimum atmospheric rarefaction (170-185 mm Hg) were used to study antihypoxic activity of the compunds of general formula (I).
Mice were one by one placed into sealed glass jars and their lifetime was recorded.
The experiment was carried out on 90 mongrel male mice having initial body mass 20 ± 0,5 g housed in cages by 10 animals and given a standard vivarium ration. Average lifetime of mice in closed vessels having volume 250 ml was preliminarily determined and it was 22 to 25 minutes. All the groups included 10 animals each.
Experimental protocol: • a) - preliminary hypoxia for 12 minutes; • b) - first administration of a compound immediately following preliminary hypoxia; • c) - second administration of a compound in 24 hours after the first one, then daily for three days; • d) - recording lifetime of animals under hypoxic conditions in a sealed space 2 hours after the last administration of a compound.
The test compounds were dissolved in distilled water and orally administered to animals for 5 days.
Experimental groups: • Group 1 -(control) - without preliminary hipoxia with oral administration of distilled water for 5 days; • Groups 2 and 3 - administration of the compound XLIV using two doses 50 and 500 µg respectively; • Group 4 - oral administration of sodium oxybutyrate at a dose […] 2 hours before hypoxia; • Group 5 -(control)- with preliminary hypoxia for 12 minutes with subsequent administration of distilled water for 5 days; • Groups 6 and 7 - administration of the compound XLIV using two doses 50 and 500 µg respectively; • Groups 8 and 9 - administration of the compound III using two doses 50 and 500 µg respectively.

hydroxyl radical = test: Hydroxyl radical formation in the Fenton reagent (chemiluminescence); assay type: biochemical
Human lymphocytes = test: Concanavalin A-induced blasttransformation of lymphocytes; assay type: cell-based
Protocol: Human lymphocytes were used for blasttransformation reaction [Kiseleva E.P., Tsveibakh A.S., Goldman E.I., Pigareva N.V. Application of a micromethod to study blasttransformation of lymphocytes in humans and animals. Immunology (1985), No 1, pp. 76-78]. 10 ml blood were collected into a sterile syringe containing heparine (to final concentration 25 U/ml) and incubated to sediment red blood cells (60-90 minutes at 37°C). Leukocytic suspension layer was selected and the number of nucleated cells was calculated. The cells obtained in such a way were incubated for 72 hours in a humid atmosphere with 5% CO2 at 37°C in the cells of plates for immune reactions in RPMI-1640 medium comprising 15% fetal calf serum, […] Neomycine (incubation mixture volume 0.15 ml). 5 x 10^5 cells were introduced into each plate cell. Incubation was carried out in the presence or absence of mitogen phytohemagglutinin (PHA) (Sigma) […] or concanavalin A (ConA) (Sigma) […] with or without addition of the test compounds at different concentrations. […] H^3 -thymidine in RPMI-1640 medium were introduced into each cell 16 hours before incubation termination. Following culturing period termination, 0.15 ml cellular suspension from each plate cell were transferred on the FN-8 paper filters. Filters were dried, washed two times with normal saline for 5 minutes then twice with TCA for 60 minutes. After drying, radioactivity of samples was calculated on a counter in the ZhS-8 scintillator. Stimulation index was calculated as ratio of sample radioactivity with mitogen to sample radioactivity without mitogen.

[1] = system: Lewis pulmonary carcinoma (LLC); test: Lewis pulmonary carcinoma spontaneous metastasizing, oral administration; assay type: in vivo; details: BDF1 female mice with LLC, oral 24 days; for Mean number of metastases: day 25
Protocol: Each group included 15 animals. 0.3 ml of LLC tumor tissue suspension was intramuscularly injected to mice. Henks solution was used as a solvent. […] Moscow (1992) 13 pp.]. […]

[2] = with preliminary hypoxia 12 minutes, oral 5 days, 0,05 mg/kg
[3] = with preliminary hypoxia 12 minutes, oral 5 days, 0,50 mg/kg
[4] = 1 µM, control of the series as in the table
[5] = 0.01 mM, control of the series as in the table
[6] = 0.1 mM, control of the series as in the table
[7] = 1 mM, control of the series 7839 ± 171, 1120 ± 163, 4974 ± 283 or 1332 ± 172

Compound	Lifetime (seconds) (mongrel male mice; [2])	Lifetime (seconds) (mongrel male mice; [3])	relative effect: I+/I- (hydroxyl radical; 1 µM)	Chemiluminiscence intensity (mV) + σn-1 (hydroxyl radical; [4])	relative effect: I+/I- (hydroxyl radical; 0.01 mM)	Chemiluminiscence intensity (mV) + σn-1 (hydroxyl radical; [5])	relative effect: I+/I- (hydroxyl radical; 0.1 mM)	Chemiluminiscence intensity (mV) + σn-1 (hydroxyl radical; [6])	relative effect: I+/I- (hydroxyl radical; 1 mM)	Chemiluminiscence intensity (mV) + σn-1 (hydroxyl radical; [7])	blasttranformation reaction of human lymphocytes induced by ConA (Human lymphocytes)	Radioactivity, number of pulses for 20 seconds (Human lymphocytes; 10^-3 M/l, +ConA)	Stimulation index (Human lymphocytes; 10^-3 M/l, +ConA)	Radioactivity, number of pulses for 20 seconds (Human lymphocytes; 10^-3 M/l, no mitogen)	Radioactivity, number of pulses for 20 seconds (Human lymphocytes; 10^-4 M/l, +ConA)	Stimulation index (Human lymphocytes; 10^-4 M/l, +ConA)	Radioactivity, number of pulses for 20 seconds (Human lymphocytes; 10^-4 M/l, no mitogen)	Radioactivity, number of pulses for 20 seconds (Human lymphocytes; 10^-5 M/l, +ConA)	Stimulation index (Human lymphocytes; 10^-5 M/l, +ConA)	Radioactivity, number of pulses for 20 seconds (Human lymphocytes; 10^-5 M/l, no mitogen)	other results
O=C(O)CCCC(=O)NCCc1c[nH]cn1 [compound III, N-GLUTARYLHISTAMINE]	1670,6±25,3*^5 seconds	1532,6±96,0 seconds	0.98	1100 ± 84 mV	0.87	972 ± 79 mV	0.64	719 ± 71 mV	0.15	164 ± 14 mV	stimulating effect	680 ± 82 number of pulses for 20 seconds	2.06	330 ± 105 number of pulses for 20 seconds	1197±97 number of pulses for 20 seconds	4.37	274 ± 28 number of pulses for 20 seconds	1562 ± 134 number of pulses for 20 seconds	3.34	467 ± 109 number of pulses for 20 seconds	Radioactivity, number of pulses for 20 seconds (Human lymphocytes; 10^-6 M/l, +ConA): 1922 ± 248 number of pulses for 20 seconds; Stimulation index (Human lymphocytes; 10^-6 M/l, +ConA): 4.71; Radioactivity, number of pulses for 20 seconds (Human lymphocytes; 10^-6 M/l, no mitogen): 408 ± 75 number of pulses for 20 seconds; Radioactivity, number of pulses for 20 seconds (Human lymphocytes; 10^-7 M/l, +ConA): 1483 ± 67 number of pulses for 20 seconds; Stimulation index (Human lymphocytes; 10^-7 M/l, +ConA): 3.10; Radioactivity, number of pulses for 20 seconds (Human lymphocytes; 10^-7 M/l, no mitogen): 478 ± 35 number of pulses for 20 seconds; Radioactivity, number of pulses for 20 seconds (Human lymphocytes; 10^-8 M/l, +ConA): 849 ± 133 number of pulses for 20 seconds; Stimulation index (Human lymphocytes; 10^-8 M/l, +ConA): 3.63; Radioactivity, number of pulses for 20 seconds (Human lymphocytes; 10^-8 M/l, no mitogen): 234 ± 36 number of pulses for 20 seconds; Mean number of metastases ([1]; 50 µg/kg): 38.5 ±6.3**^1; Mean number of metastases ([1]; 500 µg/kg): 30.1 ± 2.7**^1; Metastasizing inhibition percent ([1]; 50 µg/kg): 26.0%; Metastasizing inhibition percent ([1]; 500 µg/kg): 42.0%
γ-L-glutamylhistamine [compound XLIV]	1415,5±47,2 seconds	1844,8±93,2*^5 seconds	1.0	7747 ± 259 mV	0.83	6444 ± 267 mV	0.59	4625 ± 393 mV	0.28 (*)	2197 ± 311 mV	stimulating effect	1072 ± 135 number of pulses for 20 seconds	3.01	356±51 number of pulses for 20 seconds	1259 ± 90 number of pulses for 20 seconds	3.91	322 ± 38 number of pulses for 20 seconds	1695 ± 139 number of pulses for 20 seconds	5.00	339 ± 32 number of pulses for 20 seconds	Lifetime (seconds) (mongrel male mice; without preliminary hypoxia, oral 5 days, 0,05 mg/kg): 2110,6±123,6**^1 seconds; Lifetime (seconds) (mongrel male mice; without preliminary hypoxia, oral 5 days, 0,50 mg/kg): 1742,8±68,1*^1 seconds; Radioactivity, number of pulses for 20 seconds (Human lymphocytes; 10^-6 M/l, +ConA): 1963 ± 205 number of pulses for 20 seconds; Stimulation index (Human lymphocytes; 10^-6 M/l, +ConA): 6.96; Radioactivity, number of pulses for 20 seconds (Human lymphocytes; 10^-6 M/l, no mitogen): 289 ± 52 number of pulses for 20 seconds; Radioactivity, number of pulses for 20 seconds (Human lymphocytes; 10^-7 M/l, +ConA): 1786 ± 241 number of pulses for 20 seconds; Stimulation index (Human lymphocytes; 10^-7 M/l, +ConA): 7.38; Radioactivity, number of pulses for 20 seconds (Human lymphocytes; 10^-7 M/l, no mitogen): 242 ± 19 number of pulses for 20 seconds; Radioactivity, number of pulses for 20 seconds (Human lymphocytes; 10^-8 M/l, +ConA): 971 ± 44 number of pulses for 20 seconds; Stimulation index (Human lymphocytes; 10^-8 M/l, +ConA): 4.17; Radioactivity, number of pulses for 20 seconds (Human lymphocytes; 10^-8 M/l, no mitogen): 233 ± 54 number of pulses for 20 seconds; Mean number of metastases ([1]; 50 µg/kg): 42.4 ± 4.5; Mean number of metastases ([1]; 500 µg/kg): 31.9 ± 3.8*^2; Metastasizing inhibition percent ([1]; 50 µg/kg): 10.0%; Metastasizing inhibition percent ([1]; 500 µg/kg): 32.0%
